Laboratory results taken from patent US8273752B2, “Substituted imidazopyrimidines and triazolopyrimidines” (Bayer Intellectual Property GmbH, priority 2007, dated 2012).
Where a name gives a salt, the structure may show the parent alone.

Biological target: T1, GSK3β (Homo sapiens, UniProt P49841)
T1 construct: purchased Upstate xy
Test: GSK3β biochemical in vitro assay (fluorescence, NADH-coupled)
Conditions: 5 nM GSK3β, 40 μM substrate GSM, 50 μM ATP, 30° C., 2 hours
Method: The inhibitory activity of active substances is determined in a biochemical assay. The ingredients required for this purpose are mixed in a black 384-well microtitre plate with transparent base (from Greiner, catalogue number 781092). The requirements in this connection for each well of the 384-well microtitre plate are 5 nM GSK3β (from Upstate, catalogue number xy), 40 μM GSK3B substrate GSM (sequence H-RRRPASVPPSPSLSRHS-(pS)-HQRR, from Upstate, catalogue number 2-533), 30 μM nicotinamide adenine dinucleotide NADH (Roche Diagnostics, catalogue number 10107735), 50 μM adenosine triphosphate ATP (from Sigma, catalogue number A7966), and 2 mM phosphoenolpyruvate (from Roche, catalogue number 128112). The required reaction buffer in which the biochemical reaction takes place consists of 50 mM Trizma hydrochloride tris-HCl pH: 7.5 (from Sigma, catalogue number T3253), 5 mM magnesium chloride MgCl2 (from Sigma, catalogue number M8266), 0.2 mM DL-dithiothreitol DTT (from Sigma, catalogue number D9779), 2 mM ethylenediaminethertetraacid EDTA (from Sigma, catalogue number E6758), 0.01% Triton X-100 (from Sigma, catalogue number T8787) and 0.05% bovine serum albumin BSA (from Sigma, catalogue number B4287).
Active substances are dissolved in dimethyl sulphoxide DMSO (from Sigma, catalogue number D8418) in a concentration of 10 mM. Active substances are added in serial concentrations of 10 μM, 1 μM, 0.1 μM, 0.01 μM, 0.001 μM, 0.0001 μM, 0.00001 μM, 0.000001 μM to the mixtures of the biochemical reaction. As control, dimethyl sulphoxide is added instead of substance in a final concentration of 0.1%.
The reaction is incubated at 30° C. for 2 hours and then the resulting fluorescence is measured in a Tecan Safire-XFLUOR4 instrument, version V4.50 (serial number 12901300283) with the specifications: measurement mode—fluorescence measured from below, extinction wavelength 340 nm, emission wavelength 465 nm, slit width extinction 5 nm, slit width emission 5 nm, gain mode 120, delay 0 μs, number of light flashes per measurement 3, and an integration time of 40 μs.
The activity of the active substances is calculated in relation to these 0% and 100%.

T1 sequence (P49841 whole entry, species assumed): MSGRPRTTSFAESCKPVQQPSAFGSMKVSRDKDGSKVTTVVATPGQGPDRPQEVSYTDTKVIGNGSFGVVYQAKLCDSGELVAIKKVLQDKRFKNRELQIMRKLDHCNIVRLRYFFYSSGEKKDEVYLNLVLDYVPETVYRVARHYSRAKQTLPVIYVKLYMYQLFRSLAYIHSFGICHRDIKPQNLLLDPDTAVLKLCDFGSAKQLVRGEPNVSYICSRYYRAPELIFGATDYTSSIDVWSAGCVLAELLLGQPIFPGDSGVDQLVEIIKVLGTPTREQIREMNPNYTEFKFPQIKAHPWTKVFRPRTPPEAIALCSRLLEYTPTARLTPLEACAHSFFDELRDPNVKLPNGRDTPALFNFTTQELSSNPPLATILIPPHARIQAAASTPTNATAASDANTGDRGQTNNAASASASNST

IC50 [nM] | Compound
12 | N#Cc1ccc(NCCNc2nc(-c3ccc(Cl)cc3Cl)cc3nccn23)nc1N [Example 148, 2-Amino-6-[(2-{[7-(2,4-dichlorophenyl)imidazo[1,2-c]pyrimidin-5-yl]amino}ethyl)amino]-pyridine-3-carbonitrile]
148 | Nc1nc(NCCNc2nc(-c3ccc(OC(F)(F)F)cc3)cc3nccn23)ccc1[N+](=O)[O-] [Example 32]
15 | Cc1cc(C)cc(-c2cc3nccn3c(NCCNc3ccc([N+](=O)[O-])c(N)n3)n2)c1 [Example 36]
14 | N#Cc1ccc(NCCNc2nc(-c3ccc(Cl)cc3Cl)cc3ncc(Br)n23)nc1 [Example 153, 6-[(2-{[3-Bromo-7-(2,4-dichlorophenyl)imidazo[1,2-c]pyrimidin-5-yl]amino}ethyl)amino]-pyridine-3-carbonitrile]
5 | Nc1nc(NCCNc2nc(-c3ccc(Cl)cc3Cl)cc3nccn23)ccc1[N+](=O)[O-] [Example 4, N^6-(2-{[7-(2,4-Dichlorophenyl)imidazo[1,2-c]pyrimidin-5-yl]amino}ethyl)-3-nitropyridine-2,6-diamine]
17 | Cc1cn2c(NCCNc3ccc([N+](=O)[O-])c(N)n3)nc(-c3ccc(Cl)cc3Cl)cc2n1 [Example 77, N^6-(2-{[7-(2,4-Dichlorophenyl)-2-methylimidazo[1,2-c]pyrimidin-5-yl]amino}ethyl)-3-nitropyridine-2,6-diamine]
91 | CCOc1ccc(-c2cc3nccn3c(NCCNc3ccc([N+](=O)[O-])c(N)n3)n2)cc1 [Example 56]
124 | N#Cc1ccc(NCCNc2nc(-c3ccc(C(F)(F)F)cc3)cc3nc(C(=O)NC(CO)CO)cn23)nc1 [Example 120]
15 | N#Cc1sc(NCCNc2nc(-c3ccc(Cl)cc3Cl)cc3nccn23)nc1N [Example 5, 4-Amino-2-[(2-{[7-(2,4-dichlorophenyl)imidazo[1,2-c]pyrimidin-5-yl]amino}ethyl)amino]-1,3-thiazole-5-carbonitrile]
50 | N#Cc1ccc(NCCNc2nc(-c3ccc(C(F)(F)F)cc3)cc3nc(CN4CCOCC4)nn23)nc1N [Example 180]
173 | CC(C)Cn1cc(-c2cc3nccn3c(NCCNc3ccc([N+](=O)[O-])c(N)n3)n2)cn1 [Example 63]
44 | O=[N+]([O-])c1ccc(NCCNc2nc(-c3ccc(Cl)cc3Cl)cc3nccn23)nc1 [Example 6, N-[7-(2,4-Dichlorophenyl)imidazo[1,2-c]pyrimidin-5-yl]-N′-(5-nitropyridin-2-yl)ethane-1,2-diamine]
5 | CC(=O)c1sc(NCCNc2nc(-c3ccc(Cl)cc3Cl)cc3nccn23)nc1N [Example 137]
54 | CN(C)CCNC(=O)c1cn2c(NCCNc3ccc(C#N)cn3)nc(-c3ccc(Cl)cc3Cl)cc2n1 [Example 112]
11 | CC(=O)c1ccc(NCCNc2nc(-c3ccc(Cl)cc3Cl)cc3nccn23)nc1N [Example 150, 1-{2-Amino-6-[(2-{[7-(2,4-dichlorophenyl)imidazo[1,2-c]pyrimidin-5-yl]amino}ethyl)amino]-pyridin-3-yl}ethanone hydrochloride]
196 | Nc1nc(NCCNc2nc(-c3ccc(C(F)(F)F)cc3)cc3nccn23)ccc1[N+](=O)[O-] [Example 66]
178 | CC(C)(C)c1ccc(-c2cc3nccn3c(NCCNc3ccc(C#N)cn3)n2)cc1 [Example 8]
34 | N#Cc1ccc(NCCNc2nc(-c3ccc(Cl)cc3Cl)cc3nccn23)nc1 [Example 1, 6-[(2-{[7-(2,4-Dichlorophenyl)imidazo[1,2-c]pyrimidin-5-yl]amino}ethyl)amino]nicotinonitrile]
89 | CN1CCN(C(=O)c2cn3c(NCCNc4ccc(C#N)cn4)nc(-c4ccc(Cl)cc4Cl)cc3n2)CC1 [Example 111]
6 | Nc1nc(NCCNc2nc(-c3ccc(Cl)cc3Cl)cc3nccn23)sc1C(=O)C1CC1 [Example 131]
3 | CC(=O)c1sc(NC2CCCN(c3nc(-c4ccc(Cl)cc4Cl)cc4nccn34)C2)nc1N (stereo not drawn) [Example 128, 1-[4-amino-2-({1-[7-(2,4-dichlorophenyl)imidazo[1,2-c]pyrimidin-5-yl]piperidin-3-yl}amino)-1,3-thiazol-5-yl]ethanone trifluoroacetate]
5 | N#Cc1sc(NC2CCCN(c3nc(-c4ccc(Cl)cc4Cl)cc4ncnn34)C2)nc1N (stereo not drawn) [Example 202]
23 | Cc1cc(F)ccc1-c1cc2nccn2c(NCCNc2ccc([N+](=O)[O-])c(N)n2)n1 [Example 39]
5 | N#Cc1ccc(NCCNc2nc(-c3ccc(Cl)cc3Cl)cc3nc(C(=O)NCC(=O)O)cn23)nc1 [Example 115]
23 | Cc1cccc(-c2cc3nccn3c(NCCNc3ccc([N+](=O)[O-])c(N)n3)n2)c1C [Example 38]
72 | N#Cc1ccc(NCCNc2nc(-c3ccc(C(F)(F)F)cc3)cc3ncnn23)nc1 [Example 93, 6-{[2-({7-[4-(Trifluoromethyl)phenyl][1,2,4]triazolo[1,5-c]pyrimidin-5-yl}amino)ethyl]amino}-nicotinonitrile]
93 | Nc1nc(NCCNc2nc(-c3ccccc3)cc3nccn23)ccc1[N+](=O)[O-] [Example 57]
